Key:
[1] = Extraction of mono-n-octyltin trichloride from organic phase into aqueous aluminum chloride phase, dependence on chloride concentration (Example 4); type: physicochemical; settings: stepwise dilution with deionized water
Procedure: A mixture was prepared, consisting by weight of 55.7% mono-n-octyltin trichloride, 10.7% di-n-butyl ether, 26.2% n-heptane, 7.3% AlCl3. 10 g of this mixture were transferred into a graduated glass cylinder.
Portions of deionized water were added stepwise to the system, and the volume changes of organic and aqueous phase were noted. Volume decrease of the organic phase indicates extraction of monooctyltin into the aqueous phase.

[2] = Extraction of mono-n-octyltin trichloride with aqueous sodium chloride phase (Example 7); type: physicochemical; settings: 16 mL organic mixture, 2.5 g saturated NaCl solution plus 5 g deionized water, 45° C.
Procedure: 10.15 g of mono-n-octyltin trichloride, 1.95 g of di-n-butyl ether and 4.75 g of n-heptane were mixed to give of clear and homogeneous solution. […] 2.5 g of a saturated NaCl solution was were added. The mixture was stirred for ca. 10 minutes, and then transferred into a graduated glass cylinder. Phase separation could not be observed, because a suspension had formed. When further 5 g of deionized water were added and the mixture was heated to 45° C., 2 phases appeared. When they had settled, it became visible, that the volume of the organic phase was reduced from 16 mL to ca. 8 mL, indicating extraction of monooctyltin trichloride into the aqueous phase. Upon cooling to room temperature, the lower aqueous phase solidified.

[3] = cited from earlier work
[4] = Extraction of mono-n-octyltin trichloride from organic phase into aqueous hydrochloric acid phase, dependence on chloride concentration (Example 5); type: physicochemical; settings: stepwise dilution with deionized water
Procedure: 20.3 g of mono-n-octyltin trichloride, 3.9 g of di-n-butyl ether and 9.5 g of n-heptane were mixed to give of clear and homogeneous solution. 8.6 g (7.4 mL) of a 32% aqueous HCl solution were added. The mixture was stirred for ca. 10 minutes, and then transferred into a graduated glass cylinder. 2 phases appeared; they were allowed to settle.
Portions of deionized water were added stepwise to the system, and the volume changes of organic and aqueous phases were noted. Volume decrease of the organic phase indicates extraction of monooctyltin into the aqueous phase.

[5] = Extraction of mono-n-octyltin trichloride into aqueous aluminum chloride phase, dependence on temperature (Example 6); type: physicochemical; settings: 30 minutes settling, 20 g mixture (18.5 mL) plus 8.4 g deionized water
Procedure: A mixture was prepared, consisting by weight of 55.7% mono-n-octyltin trichloride, 10.7% di-n-butyl ether, 26.2% n-heptane, 7.3% AlCl3. To 20 g of this mixture (having a volume of 18.5 mL), 8.4 g of deionized water were added under stirring, and the resulting mixture was placed into a graduated glass cylinder.
The temperature in the glass cylinder was adjusted to 20° C., and the phases were allowed to settle and separate for 30 minutes. The resulting volume of the organic phase was 8 mL.
Subsequently, the temperature in the glass cylinder was adjusted to 40° C., and the phases were allowed to settle and separate for 30 minutes. The resulting volume of the organic phase was 10 mL.
Subsequently, the temperature in the glass cylinder was adjusted to 60° C., and the phases were allowed to settle and separate for 30 minutes. The resulting volume of the organic phase was 14 mL.

SMILES | aqueous aluminum chloride concentration at which extraction becomes particularly efficient [1] [%] | volume of the organic phase after extraction [2] | solubility in water [3] | HCl concentration at which extraction becomes particularly efficient [4] | volume of the organic phase ([5]; 20° C.) [mL] | volume of the organic phase ([5]; 40° C.) [mL] | volume of the organic phase ([5]; 60° C.) [mL]
CCCCCCC[CH2][Sn]([Cl])([Cl])[Cl] [mono-n-octyltin trichloride] | ≤ 17 | ca. 8 mL | practically insoluble | approx. 16% | 8 | 10 | 14
CCC[CH2][Sn]([Cl])([Cl])[Cl] [monobutyltin trichloride] |  |  | miscible |  |  |  | 
CCCCCCC[CH2][Sn]([Cl])([Cl])[CH2]CCCCCCC [dioctyltin dichloride] |  |  | practically insoluble |  |  |  | 
CCCCCCC[CH2][Sn]([Cl])([CH2]CCCCCCC)[CH2]CCCCCCC [trioctyltin chloride] |  |  | practically insoluble |  |  |  | 

Source: US10174060B2, “Process for purifying monooctylin trichloride” (CHEMTURA CORPORATION, priority 2014, dated 2019)
